Results: US20070276040A1, “Peptidyl Arginine Deiminase Type IV Inhibitor” (priority 2004, published 2007)

Target: T1, PAD4 (Homo sapiens, UniProt Q9UM07, G112A/G55S/V82A)
T1 construct: made in house
Assay: Inhibition reaction of Bz-Arg derivatives on PAD4 digestion
Assay type: biochemical
Conditions: substrate Bz-Arg; 20 μl inhibitor solution of 1 nmol/μl; 10 mM CaCl2, pH 7.6; 37° C. for 40 or 60 minutes; reverse-phase HPLC
Method: A buffer solution B (0.1 M Tris/HCl, 10 mM CaCl2, 2 mM DTT, pH 7.6, 125 μl), Bz-Arg (0.1 M Tris/HCl, 10 mM CaCl2, pH 7.6, 25 μl (a solution prepared in a concentration of 1 nmol/μl)) and PAD4 (1 μl) were mixed together under ice-cooling to give a Bz-Arg solution. PAD4 was prepared in accordance with the methods described in The Journal of Biological Chemistry, Vol. 277, No. 51, pp. 49562-49568, 2002 and in the documents cited in the journal. Twenty μl each of Bz-Arg (mono-methyl), Bz-ADMA, Bz-SDMA and a buffer solution A (0.1 M Tris/HCl, 10 mM CaCl2, pH 7.6) (a solution prepared in a concentration of 1 nmol/μl) was mixed with the Bz-Arg solution (30 μl) and allowed to react at 37° C. for 40 or 60 minutes. The reaction was quenched with 1 M HCl (50 μl) and then subjected to reverse-phase HPLC to separate the reaction mixture. […] The results as determined 40 minutes and 60 minutes after the start of reaction are shown in FIG. 3 and FIG. 4, respectively. In FIGS. 3 and 4, the reference number 1 represents the result with no inhibitor, 2 for the result with Bz-Arg (mono-methyl), 3 for the results with Bz-ADMA, and 4 for the result with Bz-SDMA; the vertical axis indicates the sample number and the horizontal axis indicates the yield of the deimination reaction (i.e., yield of the Bz-citrulline produced).

T1 sequence (Q9UM07 whole entry G55S/V82A/G112A): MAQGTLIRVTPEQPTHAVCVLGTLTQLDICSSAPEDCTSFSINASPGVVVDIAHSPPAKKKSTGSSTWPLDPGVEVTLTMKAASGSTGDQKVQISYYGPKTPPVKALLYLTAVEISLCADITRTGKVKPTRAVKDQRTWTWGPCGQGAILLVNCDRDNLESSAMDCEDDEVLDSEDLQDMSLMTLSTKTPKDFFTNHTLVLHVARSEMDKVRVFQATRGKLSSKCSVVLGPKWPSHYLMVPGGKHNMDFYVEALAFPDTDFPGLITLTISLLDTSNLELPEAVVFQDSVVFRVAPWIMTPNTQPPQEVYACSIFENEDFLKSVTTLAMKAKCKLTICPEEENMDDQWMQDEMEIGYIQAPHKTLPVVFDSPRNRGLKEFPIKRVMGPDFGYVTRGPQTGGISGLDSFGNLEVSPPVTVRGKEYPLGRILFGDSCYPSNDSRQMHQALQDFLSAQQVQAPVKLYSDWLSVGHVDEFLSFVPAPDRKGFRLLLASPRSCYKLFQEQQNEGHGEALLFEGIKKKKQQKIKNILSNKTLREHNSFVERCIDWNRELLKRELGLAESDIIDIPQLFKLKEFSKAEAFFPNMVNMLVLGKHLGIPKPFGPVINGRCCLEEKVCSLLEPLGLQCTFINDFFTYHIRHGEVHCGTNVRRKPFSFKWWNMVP

| inhibitory effect on PAD4 digestion (deimination of Bz-Arg, yield of the Bz-citrulline produced) | SMILES |
| --- | --- |
| most potent inhibitory effect | CN(C)C(=N)NCCCC(NC(=O)c1ccccc1)C(=O)O (centres unmarked) [Bz-ADMA] |
| no inhibitory effect | C/N=C(/NC)NCCCC(NC(=O)c1ccccc1)C(=O)O (centres unmarked) [Bz-SDMA] |
